Experimental data: patent US20220146526A1, “METHOD FOR EVALUATING SAMPLE, ANALYSIS METHOD, METHOD FOR DETECTING DEGRADED SAMPLE, MARKER FOR DETECTING DEGRADED BLOOD PLASMA SAMPLE, AND MARKER FOR DETECTING DEGRADED SERUM SAMPLE” (SHIMADZU CORPORATION, priority 2019, published 2022)

Experiment: LC/MS of blood plasma sample: time from blood collection to centrifugation (Table D)
Assay type: physicochemical, human
Conditions: detection intensity relative to 1 at 15 minutes, blood collection to centrifugation, after 12 hours
Procedure: (§1) At room temperature, 5 mL of blood from a healthy subject was taken into a blood-collecting vessel containing EDTA, and the blood-collecting vessel was inverted for mixing, then cooled, and allowed to stand at 4° C. Here, in order to investigate how the detection intensity of molecules contained in the sample was affected in a case where the time to cooling was set to 5 minutes or more as compared to that in a case where the time to cooling was set to 1 minute or less, preparations were performed under both the former condition and the latter condition. After standing, the blood sample was subjected to centrifugation under a condition of 4° C., 3000 rpm, and 15 minutes. […] After centrifugation, the blood-collecting vessel was left to stand at room temperature for 30 minutes, and the blood plasma was isolated during this 30 minutes. The obtained blood plasma sample was frozen and stored. Here, in order to investigate how the detection intensity of molecules contained in the sample was affected in cases where freezing and thawing was performed 4 times, 6 times, and 10 times after freezing as compared to that in a case where freezing and thawing was performed 2 times after freezing, freezing and thawing was performed under the respective conditions of 2, 4, 6, and 10 times.
(§2) Frozen blood plasma samples and serum samples were subjected to GC/MS or LC/MS. In GC/MS, the blood plasma samples and serum samples were subjected to methoxymation and trimethylsilylation and then introduced to GC-MS.
(§3) Analysis column: Discovery HS F5-3 (inner diameter of 2.1 mm, length of 150 mm, film thickness of 3 μm) (Sigma-Aldrich)
(§4) Column temperature: 40° C.
(§5) (A) 0.1% formic acid (dissolved in water)
(§6) (B) 0.1% formic acid (dissolved in acetonitrile)
(§7) Flow velocity: 0.25 mL/min
(§8) Ionization method: electrospray
(§9) Temperature: • Desolvation Line (DL) temperature: 250° C. • Heat block temperature: 400° C. • Interface temperature: 300° C.
(§10) Gas flow rate: • Nebulizer gas flow rate: 3.0 L/min • Drying gas flow rate: 10.0 L/min • Heating gas flow rate: 10.0 L/min
(§11) Mode: multiple reaction monitoring (MRM)
The rate of increase or decrease in Table D is the value of detection intensity relative to 1 that is the detection intensity in a case where the time from blood collection to centrifugation is set to 15 minutes.

SMILES | Rate of increase or decrease
NC(=O)NCCC[C@H](N)C(=O)O [Citrulline] | 0.68
N[C@@H](CCSC[C@H](N)C(=O)O)C(=O)O [Cystathionine] | 1.44

Same assay, conditions: detection intensity, blood collection to centrifugation, after 12 hours vs 15 minutes

SMILES | Increase or decrease
C[C@H](N)C(=O)O [Alanine] | Different from individual
C[N+](C)(C)CC(O)CC(=O)[O-] (stereo not shown) [Carnitine] | Different from individual
CN(CC(=O)O)C(=N)N [Creatine] | Different from individual
Nc1ccccc1C(=O)CC(N)C(=O)O (stereo not shown) [Kynurenine] | Different from individual
NC(=O)NCCC[C@H](N)C(=O)O [Citrulline] | Decrease
N[C@@H](CCSC[C@H](N)C(=O)O)C(=O)O [Cystathionine] | Increase

Same assay, conditions: different from individual to individual, individuals with decrease, relative to 1 at 15 minutes, collection to centrifugation, after 12 hours

SMILES | Rate of increase or decrease (second value, decrease)
C[C@H](N)C(=O)O [Alanine] | 0.64
C[N+](C)(C)CC(O)CC(=O)[O-] (stereo not shown) [Carnitine] | 0.64
CN(CC(=O)O)C(=N)N [Creatine] | 0.66
Nc1ccccc1C(=O)CC(N)C(=O)O (stereo not shown) [Kynurenine] | 0.66

Same assay, conditions: different from individual to individual, individuals with increase, relative to 1 at 15 minutes, collection to centrifugation, after 12 hours

SMILES | Rate of increase or decrease (first value, increase)
C[C@H](N)C(=O)O [Alanine] | 1.41
C[N+](C)(C)CC(O)CC(=O)[O-] (stereo not shown) [Carnitine] | 1.57
CN(CC(=O)O)C(=N)N [Creatine] | 1.67
Nc1ccccc1C(=O)CC(N)C(=O)O (stereo not shown) [Kynurenine] | 1.85

Experiment: LC/MS of blood plasma sample: number of times of freezing and thawing (Table F)
Assay type: physicochemical, human
Conditions: detection intensity relative to 1 at 2 times, freezing and thawing 4 times
Procedure: as §1, §2, §3, §4, §5, §6, §7, §8, §9, §10, §11
The rate of increase or decrease in Table F is the value of detection intensity relative to 1 that is the detection intensity in a case where the number of times of freezing and thawing is set to 2 times.

SMILES | Rate of increase or decrease
CN(CC(=O)O)C(=N)N [Creatine] | 1.39
N[C@@H](CCSC[C@H](N)C(=O)O)C(=O)O [Cystathionine] | 1.52

Same assay, conditions: detection intensity relative to 1 at 2 times, freezing and thawing 6 times

SMILES | Rate of increase or decrease
C[N+](C)(C)CC(O)CC(=O)[O-] (stereo not shown) [Carnitine] | 1.30
Nc1ccccc1C(=O)CC(N)C(=O)O (stereo not shown) [Kynurenine] | 1.37

Same assay, conditions: detection intensity relative to 1 at 2 times, freezing and thawing 10 times

SMILES | Rate of increase or decrease
C[C@H](N)C(=O)O [Alanine] | 1.34
NC(=O)NCCC[C@H](N)C(=O)O [Citrulline] | 1.33

Same assay, conditions: detection intensity, freezing and thawing 4 times vs 2 times

SMILES | Increase or decrease
CN(CC(=O)O)C(=N)N [Creatine] | Increase
N[C@@H](CCSC[C@H](N)C(=O)O)C(=O)O [Cystathionine] | Increase

Same assay, conditions: detection intensity, freezing and thawing 6 times vs 2 times

SMILES | Increase or decrease
C[N+](C)(C)CC(O)CC(=O)[O-] (stereo not shown) [Carnitine] | Increase
Nc1ccccc1C(=O)CC(N)C(=O)O (stereo not shown) [Kynurenine] | Increase

Same assay, conditions: detection intensity, freezing and thawing 10 times vs 2 times

SMILES | Increase or decrease
C[C@H](N)C(=O)O [Alanine] | Increase
NC(=O)NCCC[C@H](N)C(=O)O [Citrulline] | Increase

Experiment: LC/MS of serum sample: number of times of freezing and thawing (Table M)
Assay type: physicochemical, human
Set-up: key to Rate of increase or decrease: detection intensity relative to 1 at 2 freeze-thaw cycles
Conditions: 4 times of freezing and thawing; detection intensity relative to 1 at 2 times
Procedure: After standing, the blood sample was subjected to centrifugation under a condition of room temperature, 3500 rpm, and 5 minutes. […] After centrifugation, the blood-collecting vessel was left to stand at room temperature, and the serum was isolated during this time. Here, in order to investigate how the detection intensity of molecules contained in the sample was affected in cases where the time during which the blood-collecting vessel was left at room temperature was set to 1 hour and 6 hours as compared to that in a case where the time was set to 30 minutes, preparations were performed under the respective conditions of 30 minutes, 1 hour, and 6 hours. The obtained serum sample was frozen and stored. Here, in order to investigate how the detection intensity of molecules contained in the sample was affected in cases where freezing and thawing was performed 4 times, 6 times, and 10 times after freezing as compared to that in a case where freezing and thawing was performed 2 times after freezing, freezing and thawing was performed under the respective conditions of 2, 4, 6, and 10 times.
as §2, §3, §4, §5, §6, §7, §8, §9, §10, §11
The rate of increase or decrease in Table M is the value of detection intensity relative to 1 that is the detection intensity in a case where the number of times of freezing and thawing is set to 2 times.

SMILES | Rate of increase or decrease
CN(CC(=O)O)C(=N)N [Creatine] | 0.63
Nc1ccccc1C(=O)CC(N)C(=O)O (stereo not shown) [Kynurenine] | 0.67

Same assay, conditions: 6 times of freezing and thawing; detection intensity relative to 1 at 2 times

SMILES | Rate of increase or decrease
C[N+](C)(C)CC(O)CC(=O)[O-] (stereo not shown) [Carnitine] | 0.67
NC(=O)NCCC[C@H](N)C(=O)O [Citrulline] | 0.62

Same assay, conditions: 6 times of freezing and thawing; relative to 1 at 2 times; different from individual to individual, second value (decrease)

SMILES | Rate of increase or decrease
C[C@H](N)C(=O)O [Alanine] | 0.63

Same assay, conditions: serum sample, LC/MS; detection intensity changed by 30% or more vs 2 times of freezing and thawing

SMILES | Number of times when compound is affected
C[C@H](N)C(=O)O [Alanine] | 6 times
C[N+](C)(C)CC(O)CC(=O)[O-] (stereo not shown) [Carnitine] | 6 times
CN(CC(=O)O)C(=N)N [Creatine] | 4 times
Nc1ccccc1C(=O)CC(N)C(=O)O (stereo not shown) [Kynurenine] | 4 times
NC(=O)NCCC[C@H](N)C(=O)O [Citrulline] | 6 times

Same assay, conditions: serum sample, LC/MS; detection intensity vs 2 times of freezing and thawing

SMILES | Increase or decrease
C[C@H](N)C(=O)O [Alanine] | Different from individual
C[N+](C)(C)CC(O)CC(=O)[O-] (stereo not shown) [Carnitine] | Decrease
CN(CC(=O)O)C(=N)N [Creatine] | Decrease
Nc1ccccc1C(=O)CC(N)C(=O)O (stereo not shown) [Kynurenine] | Decrease
NC(=O)NCCC[C@H](N)C(=O)O [Citrulline] | Decrease
